Data set [1] is described as follows: Neuroleptic effect: duration and strength (remarks of Table 2). In kind it is in vivo. The settings on record: for Duration (remarks, words): duration of neuroleptic effect; for Duration (remarks, words) / Strength of effect (remarks, words): in words; for Strength of effect (remarks, words): strength of neuroleptic effect. From the text: The pharmacological testing of the novel xanthones and thioxanthenes of Formula I consisted of standard and reliable tests. […]

Data set [2] is described as follows: Catalepsy wire mesh, rat, max. In kind it is in vivo. Particulars: po, rats.
Data set [3] is described as follows: Amphetamine antagonism (stereotypy in rats). In kind it is in vivo. The settings on record: Rattus norvegicus.
A short description of data set [4]: Methylphenidate antagonism (mice biting corrugated paper). Particulars: Mus musculus, ip. In kind it is in vivo. As for the experimental part: Methylphenidate antagonism (ED50 mg/kg i.p.)
Perspex observation cages without bottom and lid, consisting of 5 sections each measuring 12×25×30 cm. White corrugated paper. Mice, male, 18-25 g.
The test substance is given i.p. in the doses 0, 1/8, 1/32 and 1/128 of the determined "i.p. LD50". 3×2 mice are used for each dose level. Two or 24 hours after injection of test substance, methylphenidate, 60 mg/kg, is injected s.c. After administration of methylphenidate the mice are placed in the observation cages, 2 in each cage, where they remain for exactly 1 hour. The cages are placed on corrugated paper, the corrugations facing upwards. It is examined whether the mice have been biting the corrugated paper or not. […] If one or more of the control pairs have not been biting, the test has to be repeated on a new set of mice.
The result is stated in fractions: 0/3, 1/3, 2/3 and 3/3 where 0, 1, 2 and 3 are the number of pairs which have not been biting on receipt of the dose in question.
The results are calculated as the dose (ED50), which causes antagonism in 50% of the test animals.

Data set [5] can be described thus: Catalepsy wire mesh, rat, max. In kind it is in vivo, rats. The settings on record: for ED50: Rattus norvegicus, sc, read-out: Catalepsy wire mesh, rat, max. ED50. How it is done: Catalepsy wire mesh, rat, max. (ED50 mg/kg s.c.)
A vertical wire netting (50 cm×49 cm). The meshes (openings) of the netting are square (1 cm×1 cm). The wire diameter is 2 mm. Stop watch. Rats, male, 180-200 g.
The animals are labeled and used in groups of five. The test substance is injected subcutaneously (s.c.) (5 ml/kg) at 4 dose levels selected from the fixed dose scale.
The animals are placed in the middle of the vertical wire netting 60, 120, 180, 240, 300 and 360 minutes after injection of the test compound. The animals are considered cataleptic when they remain immobile during a period of 15 seconds. This cataleptic reaction is designated +. If the rats are "atonic" and passively slide down the wire mesh they are considered not cataleptic. If the animals climb up and down the wire mesh they are nor cataleptic. In both situations the designation - is used.

A short description of data set [6]: Acute toxicity, LD50 in male rats following peroral administration. In kind it is in vivo. Particulars: for LD50 at 168 h: rat, in vivo, po, male rats, p.o., one week after administration, read-out: LD50 p.o. in male rats after 1 week. How it is done: The acute toxicity, as measured by LD50 in male rats following peroral administration, is much lower for Lu 13-135 when compared with piflutixol one week after administration. The figure for Lu 13-135 is >60 mg/kg against 1.5 mg/kg for piflutixol.

Another data set can be described thus: Sedation. The settings on record: in words; for b551 compared with piflutixol.
Where [7] appears, read: po, read-out: Amphetamine antagonism ED50, p.o.
Where [8] appears, read: mice, i.p., methylphenidate 60 mg/kg s.c. 2 h after test substance, read-out: Methylphenidate antagonism ED50, 2 h.
Setting [9] is: mice, i.p., methylphenidate 60 mg/kg s.c. 24 h after test substance, read-out: Methylphenidate antagonism ED50, 24 h.
Where [10] appears, read: 2 h, read-out: Methylphenidate antagonism ED50, 2 h.
The mark [11] stands for this setting: 24 h, read-out: Methylphenidate antagonism ED50, 24 h.
Setting [12] is: rats, s.c., strongest effect within first 6 hours.
Setting [13] is: ip, 24 h, read-out: Amphetamine antagonism ED50.

“Also recorded” adds a separate entry of the source.

Broadly, the ED50 is the dose at which the effect has come halfway, by size or by number of responders. Turning to `CS(=O)(=O)N[C@H]1CC[C@H](CN2CCC(=C3c4ccc(F)cc4Sc4ccc(C(F)(F)F)cc43)CC2)CC1` [Lu 16-049], the “Duration (remarks, words)” value in data set [1] is listed as “long acting”. Moreover, in data set [1], the “Strength of effect (remarks, words)” value was “moderately strong”. The ED50 in data set [2] turned out to be 1.7 mg/kg; in data set [3] (setting [7]) it was 2.5 mg/kg; in data set [4] (setting [8]), 1 mg/kg; in data set [4] (setting [9]), 0.49 mg/kg.
By LD50 is commonly meant the dose expected to kill half of the subjects tested. As to `OCCC1CCN(CC/C=C2/c3ccc(F)cc3Sc3ccc(C(F)(F)F)cc32)CC1` [piflutixol, 2-trifluoromethyl-6-fluoro-9-(3-(4-(2-hydroxyethyl)-1-piperidyl)propylidene)-thioxanthene, reference compound], in data set [1], the “Duration (remarks, words)” value was “most long acting”. In addition, the Duration in data set [1] (remarks column, hours) was 48 to 72 h. Besides, in data set [1], the “Strength of effect (remarks, words)” value is on record as “most patent”. Besides, the median effective dose (ED50) in data set [5] (6 h) amounted to 0.05 mg/kg; in data set [4] (setting [10]), 0.03 mg/kg; in data set [4] (setting [11]) it was 0.03 mg/kg. Further, the LD50 at 168 h in data set [6] came out at 1.5 mg/kg. Also, the “Sedation / sedative effect” value in “Sedation” is recorded as “very strong sedative effects”.
In the case of `O[C@H]1CC[C@H](CN2CCC(=C3c4ccc(F)cc4Sc4ccc(C(F)(F)F)cc43)CC2)CC1` [Lu 13-135, 1-(trans-4-hydroxycyclohexylmethyl)-4-(2-trifluoromethyl-6-fluoro-9-thioxanthenyliden)-piperidine], in data set [1], the “Duration (remarks, words)” value is “very long acting; also recorded: long acting”. In data set [1], the “Strength of effect (remarks, words)” value is recorded as “strong; also recorded: very strong”. Further, the 50% effective dose (ED50) was 0.4 mg/kg in data set [5] (setting [12]), 0.32 mg/kg in data set [3] (setting [13]), 0.32 mg/kg in data set [4] (setting [8]) and 0.19 mg/kg in data set [4] (setting [9]). For the same compound, the “Cataleptic activity” value in data set [5] (in words) is on record as “have a cataleptic activity”. For the same compound, the “Acute toxicity” value in data set [6] (in words, compared with related thioxanthenes (b9) or piflutixol) is listed as “much lower”. In data set [6], the LD50 at 168 h is above 60 mg/kg.
Regarding `O=C1CCC(CN2CCC(=C3c4ccc(F)cc4Sc4ccc(C(F)(F)F)cc43)CC2)CC1` [Lu 16-088], the “Duration (remarks, words)” value in data set [1] was “long acting”. Besides, the “Strength of effect (remarks, words)” value in data set [1] was “strong”. Further, the ED50 in data set [5] (setting [12]) was determined as 0.81 mg/kg; in data set [3] (setting [7]), 0.3 mg/kg; in data set [4] (setting [8]), 0.77 mg/kg; in data set [4] (setting [9]), 0.06 mg/kg.
For `CN(C)CC/C=C1/c2ccccc2Sc2ccc(Cl)cc21` [chlorprothixene, reference compound], in data set [1], the “Duration (remarks, words)” value is recorded as “short acting”. Also, the “Strength of effect (remarks, words)” value in data set [1] is on record as “moderately strong”. For the same compound, the ED50 in data set [5] (setting [12]) is 4 mg/kg; in data set [3] (setting [13]), 6.1 mg/kg; in data set [4] (setting [10]), 0.71 mg/kg; in data set [4] (setting [11]) it was above 20 mg/kg.
As to `O[C@H]1CC[C@@H](CN2CCC(=C3c4ccc(F)cc4Sc4ccc(C(F)(F)F)cc43)CC2)CC1` [Lu 15-013, 1-(cis-4-hydroxycyclohexylmethyl)-4-(2-trifluoromethyl-6-fluoro-9-thioxanthenylidene)piperidene], the “Duration (remarks, words)” value in data set [1] is on record as “long acting”. The “Strength of effect (remarks, words)” value in data set [1] was “strong”. Also, the ED50 was determined as 1.2 mg/kg in data set [5] (setting [12]), 0.76 mg/kg in data set [3] (setting [13]), 0.63 mg/kg in data set [4] (setting [8]) and 0.1 mg/kg in data set [4] (setting [9]).
In the case of `N[C@H]1CC[C@H](CN2CCC(=C3c4ccc(F)cc4Sc4ccc(C(F)(F)F)cc43)CC2)CC1` [Lu 16-042], in data set [1], the “Duration (remarks, words)” value is on record as “long acting”. The “Strength of effect (remarks, words)” value in data set [1] is “strong”. In addition, the ED50 turned out to be 3.3 mg/kg in data set [5] (setting [12]), 2.5 mg/kg in data set [3] (setting [7]), 1.2 mg/kg in data set [4] (setting [8]) and 0.17 mg/kg in data set [4] (setting [9]).
As for `OC1CC(O)(CN2CCC(=C3c4ccc(F)cc4Sc4ccc(C(F)(F)F)cc43)CC2)CC(O)C1O` (stereo not shown) [Lu 15-089], the “Duration (remarks, words)” value in data set [1] is on record as “relatively short acting”. The 50% effective dose (ED50) turned out to be 2.7 mg/kg in data set [5] (setting [12]), 1.8 mg/kg in data set [3] (setting [13]), 0.32 mg/kg in data set [4] (setting [8]) and 0.32 mg/kg in data set [4] (setting [9]).
With `OCCN1CCN(CCCN2c3ccccc3Sc3ccc(C(F)(F)F)cc32)CC1` [fluphenazine, reference compound], in data set [1], the “Duration (remarks, words)” value is on record as “short acting”. The “Strength of effect (remarks, words)” value in data set [1] was “very strong”. In addition, the 50% effective dose (ED50) in data set [5] (setting [12]) is 0.099 mg/kg; in data set [3] (setting [13]), 0.08 mg/kg; in data set [4] (setting [10]), 0.04 mg/kg; in data set [4] (setting [11]), 3.6 mg/kg.

These data come from US4285956A, “Xanthene and thioxanthene derivatives, compositions thereof and treatment therewith” (priority 1978, dated 1981).
